Results reported in patent US8642065B2, “Osteogenic promoting implants and methods of inducing bone growth” (DePuy Synthes Products, LLC, priority 2011, dated 2014).
Counter-ions that a name gives are not always drawn. Like-named read-outs stand apart in the source and are kept apart here.

Tests used:
[1] = test system: primary human mesenchymal stem cells (MSCs); experiment: Osteoinductive (OI) alkaline phosphatase (ALP) assay, dose response, ALP normalised to DNA; type: cell-based
From the text: (§1) Samples from several classes of small molecule compounds including, corticosteroids, glucocorticoids, oxysterols, compounds that impact the HMG coA reductase pathway and compounds that upregulate intracellular cAMP were screened for osteoinductive potential with an alkaline phosphatase (ALP) assay in primary human mesenchymal stem cells (MSCs). Sample compounds were screened over a dose range in a multiwell plate format using DNA to normalize the ALP response as a function of cell number. These dose response curves allowed for the determination of an EC50 to measure relative potency of the osteogenic response between compounds. FIG. 1 is a representative dose response curve for two of the corticosteroid compounds tested, clobetasol propionate and dexamethasone. In addition to the functional analysis, certain identified compounds were run through an in vitro L929 cytotoxicity assay to determine a CC50.

[2] = In vitro L929 cytotoxicity assay (CTG); type: cell-based; conditions: mouse, L929 cells; read-out: Cytotox (CTG) CC50
From the text: as §1

[3] = test system: MSCs; experiment: Relative potency: ALP assay after short exposure times, then basal media to assay completion; type: cell-based, human; conditions: for EC50: Homo sapiens, MSCs, then basal media; for Max Osteogenic Response: time range to reach the full response of the ALP assay control (dexamethasone at 10 nM for 6 days)
Protocol: One part of this technology may involve coating an osteoconductive scaffold with an osteoinductive small molecule compound to thereby deliver the compound locally when the scaffold is implanted. Consequently, the optimal time and concentration profile required for the compound to remain at the site in order to influence an osteogenic outcome was determined. Initially, potency was determined by looking at exposure over 6 days. In order to better understand the optimal exposure profile, MSCs were treated over a series of dose ranges for exposure times starting at 1 hour out to 4 days, after which the compound treated media was removed and the cells were allowed to continue to assay completion under basal media conditions. This allowed for the determination of the relative potency of the compounds over short exposure periods and gave an indication of the release requirements that would be necessary to achieve the desired osteogenic outcome.
FIG. 2 is a representative relative potency graph of a corticosteroid, fluticasone propionate, based on the results shown in Table 2.

[4] = test system: MSCs; experiment: In vitro 3-D efficacy: ALP RNA expression in MSCs seeded on coated Scaffold I; type: cell-based; conditions: compound precoated on Scaffold I, MSCs cultured three days, versus basal conditions
Protocol: The osteoinductive potential of selected small molecule compounds were determined in vitro by seeding MSCs onto a three dimensional b-TCP polymer composite scaffold, Scaffold I, which had been coated with selected compounds prior to seeding. These cells were allowed to culture for a period of time after which they were assayed for alkaline phosphatase (ALP) RNA content, an early marker of osteogenic differentiation. FIG. 7 is a graphical illustration showing the amount of ALP RNA expression in the MSCs, expressed as a fold increase over basal conditions (standard culture conditions). In this example, dexamethasone (a control for the assay) was added to the culture media in solution whereas in all other cases the compounds were precoated on to Scaffold I followed by addition of the MSCs. The cells were then cultured for three days and assayed for their level of osteogenic response via ALP RNA expression.

[5] = test system: L929; experiment: In vitro L929 cytotoxicity assay (CTG); type: cell-based; conditions: L929 cells; read-out: Cytotox (CTG) CC50
From the text: as §1

[6] = Homo sapiens, Mesenchymal stem cells, 144 h, primary human MSCs, exposure over 6 days, read-out: OI Assay (ALP) EC50
[7] = primary human MSCs, exposure over 6 days, read-out: OI Assay (ALP) EC50
[8] = Homo sapiens, Mesenchymal stem cells, 144 h, MSCs, 6 days exposure, read-out: EC50 6 days
[9] = 1 hr exposure, read-out: EC50 1 hr.
[10] = 4 hr exposure, read-out: EC50 4 hr.
[11] = 24 hr exposure, read-out: EC50 24 hr.
[12] = 72 hr exposure, read-out: EC50 72 hr

SMILES: CC(C)Cn1c(=O)n(C)c(=O)c2[nH]cnc21 [3-isobutyl 1-methylxanthine (IBMX), 3-isobutyl 1-methylxanthine]
- EC50 [1, 6]: > 10000 nM

SMILES: CC(C)CCC[C@@H](C)[C@H]1CC[C@H]2[C@@H]3CC=C4C[C@@H](O)CC[C@]4(CO)[C@H]3CC[C@]12C [19-hydroxy-cholesterol]
- EC50 [1, 6]: > 12000 nM

SMILES: CC(C)CC[C@H](O)[C@@H](C)[C@H]1CC[C@H]2[C@@H]3CC=C4C[C@@H](O)CC[C@]4(C)[C@H]3CC[C@]12C [22(S)-hydroxy-cholesterol]
- EC50 [1, 6]: > 12000 nM

SMILES: CC(C)CC[C@@H](O)[C@@H](C)[C@H]1CC[C@H]2[C@@H]3CC=C4C[C@@H](O)CC[C@]4(C)[C@H]3CC[C@]12C [22(r)-hydroxy-cholesterol]
- EC50 [1, 6]: 785 nM
- CC50 [2]: > 12000 nM

SMILES: C[C@H](CCCC(C)(C)O)[C@H]1CC[C@H]2[C@@H]3CC=C4C[C@@H](O)CC[C@]4(C)[C@H]3CC[C@]12C [25-hydroxy-cholestero]
- EC50 [1, 7]: > 12000 nM

SMILES: C[C@]12CCC(=O)C=C1CC[C@@H]1[C@@H]2[C@@H](O)C[C@]2(C=O)[C@@H](C(=O)CO)CC[C@@H]12 [Aldosterone 98%, Aldosterone]
- EC50 [1, 6]: 287 nM

SMILES: C[C@H]1C[C@H]2[C@@H]3CCC4=CC(=O)C=C[C@]4(C)[C@@]3(F)[C@@H](O)C[C@]2(C)[C@@]1(O)C(=O)CO [Betamethasone]
- EC50 [1, 6]: 1.96 nM

SMILES: CCCC1O[C@@H]2C[C@H]3[C@@H]4CCC5=CC(=O)C=C[C@]5(C)[C@H]4[C@@H](O)C[C@]3(C)[C@]2(C(=O)CO)O1 (some centres unmarked) [Budesonide]
- EC50 [1, 8]: 0.296 nM
- EC50 [1, 6]: 0.296 nM
- EC50 [3, 9]: 47.9 nM
- EC50 [3, 10]: 5.47 nM
- EC50 [3, 11]: 4.48 nM
- EC50 [3, 12]: 0.0533 nM
- Max Osteogenic Response [3]: 72 h
- CC50 [2]: > 30000 nM

SMILES: CCC(=O)O[C@]1(C(=O)CCl)[C@@H](C)C[C@H]2[C@@H]3CCC4=CC(=O)C=C[C@]4(C)[C@@]3(F)[C@@H](O)C[C@@]21C [Clobetasol propionate]
- EC50 [1, 8]: 0.012 nM
- EC50 [1, 6]: 0.012 nM
- ALP RNA expression (osteogenic differentiation of MSCs) [4]: upregulated osteogenic differentiation of MSCs significantly
- EC50 [3, 9]: 0.0605 nM
- EC50 [3, 10]: 0.019 nM
- EC50 [3, 11]: 0.0804 nM
- EC50 [3, 12]: 0.00371 nM
- Max Osteogenic Response [3]: 72 h
- CC50 [2]: > 30000 nM

SMILES: CC(=O)OCC(=O)[C@@]12N=C(C)O[C@@H]1C[C@H]1[C@@H]3CCC4=CC(=O)C=C[C@]4(C)[C@H]3[C@@H](O)C[C@@]12C [Deflazacort]
- EC50 [1, 6]: 9.85 nM

SMILES: C[C@@H]1C[C@H]2[C@@H]3CCC4=CC(=O)C=C[C@]4(C)[C@@]3(F)[C@@H](O)C[C@]2(C)[C@@]1(O)C(=O)CO [Dexamethasone]
- EC50 [1, 8]: 0.95 nM
- EC50 [1, 6]: 0.95 nM
- EC50 [3, 10]: 0.787 nM
- EC50 [3, 12]: 0.277 nM
- CC50 [2]: > 50000 nM

SMILES: CC(=O)OCC(=O)[C@@]1(OC(C)=O)[C@@H](C)C[C@H]2[C@@H]3C[C@H](F)C4=CC(=O)C=C[C@]4(C)[C@@]3(F)[C@@H](O)C[C@@]21C [Diflorasone Diacetate]
- EC50 [1, 6]: 1.38 nM

SMILES: OCCN(CCO)c1nc(N2CCCCC2)c2nc(N(CCO)CCO)nc(N3CCCCC3)c2n1 [Dipyridamole]
- CC50 [2]: > 30000 nM

SMILES: COC(=O)[C@H](CCSC)NC(=O)c1ccc(NC[C@@H](N)CS)cc1-c1ccccc1 [FTI-277 trifluoroacetate salt]
- EC50 [1, 7]: > 12000 nM

SMILES: CC(=O)OCC(=O)[C@@]1(O)CC[C@H]2[C@@H]3CCC4=CC(=O)CC[C@]4(C)[C@@]3(F)[C@@H](O)C[C@@]21C [Fludrocotisone actetate]
- EC50 [1, 7]: 4.12 nM

SMILES: CC(=O)[C@@]1(O)CC[C@H]2[C@@H]3C[C@H](C)C4=CC(=O)C=C[C@]4(C)[C@@]3(F)[C@@H](O)C[C@@]21C [Fluorometholone]
- EC50 [1, 8]: 0.319 nM
- EC50 [1, 6]: 0.319 nM
- EC50 [3, 10]: 0.464 nM
- EC50 [3, 12]: 0.146 nM
- Max Osteogenic Response [3]: 144 h
- CC50 [2]: > 5000 nM

SMILES: CC1(C)O[C@@H]2C[C@H]3[C@@H]4C[C@H](F)C5=CC(=O)CC[C@]5(C)[C@H]4[C@@H](O)C[C@]3(C)[C@]2(C(=O)CO)O1 [Flurandrenolide]
- EC50 [1, 6]: 1.56 nM

SMILES: O=CN(O)CCCP(=O)(O)O [Fosmidomycin]
- EC50 [1, 6]: > 10000 nM

SMILES: COC(=O)[C@H](CC(C)C)NC(=O)c1ccc(NC[C@@H](N)CS)cc1-c1ccccc1 [GGTI-286]
- EC50 [1, 7]: > 12000 nM

SMILES: CC1(C)O[C@@H]2C[C@H]3[C@@H]4CCC5=CC(=O)CC[C@]5(C)[C@@]4(F)[C@@H](O)C[C@]3(C)[C@]2(C(=O)CCl)O1 [Halcinonide]
- EC50 [1, 8]: 0.235 nM
- EC50 [1, 6]: 0.235 nM
- ALP RNA expression (osteogenic differentiation of MSCs) [4]: upregulated osteogenic differentiation of MSCs significantly
- EC50 [3, 9]: 2.29 nM
- EC50 [3, 11]: 1.26 nM
- EC50 [3, 12]: 0.115 nM
- Max Osteogenic Response [3]: 72 h
- CC50 [2]: > 10000 nM

SMILES: O=C1C=C2C(=CCOC2O)O1 (centres unmarked) [Patulin]
- EC50 ([1]; Mesenchymal stem cells, 144 h, primary human MSCs, exposure over 6 days, read-out: OI Assay (ALP) EC50): > 10000 nM

SMILES: CC(=O)CCCCn1c(=O)c2c(ncn2C)n(C)c1=O [Pentoxifylline (Trental), Pentoxifylline]
- EC50 [1, 6]: > 10000 nM

SMILES: CCCn1cnc2c1c(=O)n(CCCCC(C)=O)c(=O)n2C [Propentofylline]
- EC50 [1, 6]: > 10000 nM

SMILES: C[C@]12C=CC(=O)C=C1CC[C@H]1[C@@H]3C[C@@H](O)[C@](O)(C(=O)CO)[C@@]3(C)C[C@H](O)[C@@]12F [Triamcinolone]
- EC50 [1, 6]: 4.13 nM

SMILES: CCN(CC)CCOc1ccc(C(O)(Cc2ccc(Cl)cc2)c2ccc(C)cc2)cc1 (centres unmarked) [Triparanol]
- EC50 [1, 6]: > 10000 nM

SMILES: C=C(CC[C@]12O[C@H](C(=O)O)[C@@](O)(C(=O)O)[C@](C(=O)O)(O1)[C@H](OC(=O)/C=C/[C@@H](C)C[C@@H](C)CC)[C@H]2O)[C@@H](OC(C)=O)[C@H](C)Cc1ccccc1 [Zaragozic Acid A]
- EC50 [1, 7]: 715 nM
- CC50 [5]: > 30000 nM

SMILES: O=C(O)c1ccc(CCN2CCN(C/C=C/c3ccc(Cl)cc3)CC2)cc1 [bm15766 sulfate]
- EC50 [1, 7]: > 10000 nM

SMILES: CCCC(=O)Nc1ncnc2c1ncn2[C@@H]1O[C@@H]2COP(=O)(O)O[C@H]2[C@H]1OC(=O)CCC [dbcAMP]
- EC50 [1, 7]: > 10000 nM

SMILES: CC[C@H](CC[C@@H](C)[C@H]1CC[C@H]2[C@@H]3CC=C4C[C@@H](O)CC[C@]4(C)[C@H]3CC[C@]12C)C(C)C [β-Sitosterol]
- EC50 [1, 7]: > 12000 nM
